Laboratory results as given in patent US4211772A, “Benzopyran glycoside acetals and ketals” (Laboratoires Sarget, priority 1977, dated 1980).
≈ marks a conversion by molar mass, not a printed value. Read-outs that look alike come from different tables or passages of the source.

Key:
[1] = test system: OF1 EOPS mice; assay: Acute i.p. toxicity in OF1 EOPS mice; assay type: in vivo; conditions: neutralized borate buffer, over 7 days
Experimental: The acute toxicity of the compounds of the present invention was determined in mice.

[2] = test system: capillary resistance; assay: Capillaroprotecting effects: capillary resistance; assay type: in vivo, male OFA EOPS rats
Experimental: (§1) Capillaroprotecting effects
The capillary resistance was determined by a variant of the method of Charlier et al, Arch. Inter. Physiol.

[3] = molecular target: T1, Aldose Reductase (Bos taurus, UniProt P16116); assay: Inhibition of aldose reductase in vitro (enzyme from beef eye lenses, glyceraldehyde substrate); assay type: biochemical; conditions: in DMF solution, read-out: percentages of inhibition (aldose reductase)
T1 construct: The enzyme is extracted from beef eye lenses; from tissue; host or cells: beef eye lenses
Excerpt: Inhibition of Aldose Reductase In Vitro
The reoxidation of NADPH coupled to the enzymatic reaction was followed spectrophotometrically at 340 nm.

[4] = test system: capillary permeability; assay: Capillaroprotecting effects: capillary permeability; assay type: in vivo, conventional male Wistar rats
Experimental: as §1
The capillary permeability was determined by the method of Charlier et al, Arch. Inter. Physiol.

[5] = test system: carragenin edema; assay: Anti-inflammatory activity: carragenin edema test; assay type: in vivo; conditions: for % inhibition of carragenin edema: borate buffer pH 7, 24 h; for inhibition in vivo at 75 mg/kg / inhibition in vivo at 100 mg/kg / inhibition in vivo at 150 mg/kg / inhibition in vivo at 200 mg/kg: Rattus norvegicus, ip
Outline: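 Male Wistar EOPS rats receive 0.1 ml of 5% carragenin suspension in physiological serum into the hind-paw metatarsal muscle, with test substance given i.p. in neutralized solution at the same time. Paw edema is measured by plethysmometry at several times after carragenin and reported as % inhibition against pH-matched physiological serum controls.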

[6] = Solubilities in water; assay type: physicochemical; conditions: water; read-out: Solubilities in water

With C[C@@H]1O[C@@H](Oc2c(-c3ccc(O)c(O)c3)oc3cc(O)cc(O)c3c2=O)[C@@H]2OC(C)(C)O[C@@H]2[C@H]1O [No. 3, 3-O-(2,3-O,O-isopropylidene-α-L-rhamnosyl)-quercetin] the “dose until which no mortality resulted” value [1] was 400 mg/kg, the “% of animals for which the effect is ≥ 25 u cm Hg/h” value (“% of animals” for short) ([2]; 50 mg/kg i.p.) was 40% and the “capillary resistance, effect observed” value ([2]; 50 mg/kg i.p.) was 19.5 ± 7.4 u cm Hg/h. The “% of animals” value ([2]; 100 mg/kg i.p.) was 80%, the “capillary resistance, effect observed” value ([2]; 100 mg/kg i.p.) was 34.75 ± 11.1 u cm Hg/h and the “% of animals” value ([2]; 200 mg/kg i.p.) was 100%. For the same molecule, the “capillary resistance, effect observed” value ([2]; 200 mg/kg i.p.) was 56 ± 11.3 u cm Hg/h, the inhibition at 100 µM ([3]; 10^-4 mole/l) was 100% and the inhibition at 10 µM ([3]; 10^-5 mole/l) was 92%. For the same molecule, the inhibition at 1 µM ([3]; 10^-6 mole/l) was 80%, the inhibition at 0.1 µM ([3]; 10^-7 mole/l) was 40% and the “percentage reduction of capillary permeability” value (shortened to “percentage reduction”) ([4]; 50 mg/kg i.p.) was 21%. For the same molecule, the “percentage reduction” value ([4]; 100 mg/kg i.p.) was 25%, the “percentage reduction” value ([4]; 200 mg/kg i.p.) was 59% and the “% inhibition of carragenin edema” value ([5]; 75 mg/kg i.p.) was 21%. The “% inhibition of carragenin edema” value ([5]; 100 mg/kg i.p.) was 17%, the “% inhibition of carragenin edema” value ([5]; 150 mg/kg i.p.) was 11% and the “% inhibition of carragenin edema” value ([5]; 200 mg/kg i.p.) was 0%. The inhibition in vivo at 75 mg/kg ([5]; 1 h, pH 7, read-out: % inhibition of carragenin edema, 75 mg/kg i.p., borate buffer pH 7, 1 h) was 0%, the inhibition in vivo at 75 mg/kg ([5]; 1 h, pH 7, read-out: % inhibition of carragenin edema, 75 mg/kg i.p., borate buffer pH 7, 1 h 1/2) was 0% and the inhibition in vivo at 100 mg/kg ([5]; 1 h, pH 7, read-out: % inhibition of carragenin edema, 100 mg/kg i.p., borate buffer pH 7, 1 h) was 55%. The inhibition in vivo at 100 mg/kg ([5]; 1 h, pH 7, read-out: % inhibition of carragenin edema, 100 mg/kg i.p., borate buffer pH 7, 1 h 1/2) was 41%, the inhibition in vivo at 150 mg/kg ([5]; 1 h, pH 7, read-out: % inhibition of carragenin edema, 150 mg/kg i.p., borate buffer pH 7, 1 h) was 0% and the inhibition in vivo at 150 mg/kg ([5]; 1 h, pH 7, read-out: % inhibition of carragenin edema, 150 mg/kg i.p., borate buffer pH 7, 1 h 1/2) was 0%. It also gave an inhibition in vivo at 200 mg/kg ([5]; 1 h, pH 7, read-out: % inhibition of carragenin edema, 200 mg/kg i.p., borate buffer pH 7, 1 h) of 45%, an inhibition in vivo at 200 mg/kg ([5]; 1 h, pH 7, read-out: % inhibition of carragenin edema, 200 mg/kg i.p., borate buffer pH 7, 1 h 1/2) of 12% and an inhibition in vivo at 75 mg/kg ([5]; 2 h, pH 7, read-out: % inhibition of carragenin edema, 75 mg/kg i.p., borate buffer pH 7, 2 h) of 10%. The inhibition in vivo at 100 mg/kg ([5]; 2 h, pH 7, read-out: % inhibition of carragenin edema, 100 mg/kg i.p., borate buffer pH 7, 2 h) was 30%, the inhibition in vivo at 150 mg/kg ([5]; 2 h, pH 7, read-out: % inhibition of carragenin edema, 150 mg/kg i.p., borate buffer pH 7, 2 h) was 20% and the inhibition in vivo at 200 mg/kg ([5]; 2 h, pH 7, read-out: % inhibition of carragenin edema, 200 mg/kg i.p., borate buffer pH 7, 2 h) was 0%. The inhibition in vivo at 75 mg/kg ([5]; 3 h, pH 7, read-out: % inhibition of carragenin edema, 75 mg/kg i.p., borate buffer pH 7, 3 h) was 6%, the inhibition in vivo at 100 mg/kg ([5]; 3 h, pH 7, read-out: % inhibition of carragenin edema, 100 mg/kg i.p., borate buffer pH 7, 3 h) was 19% and the inhibition in vivo at 150 mg/kg ([5]; 3 h, pH 7, read-out: % inhibition of carragenin edema, 150 mg/kg i.p., borate buffer pH 7, 3 h) was 0%. It also gave an inhibition in vivo at 200 mg/kg ([5]; 3 h, pH 7, read-out: % inhibition of carragenin edema, 200 mg/kg i.p., borate buffer pH 7, 3 h) of 0%, an inhibition in vivo at 75 mg/kg ([5]; 4 h, pH 7, read-out: % inhibition of carragenin edema, 75 mg/kg i.p., borate buffer pH 7, 4 h) of 3% and an inhibition in vivo at 100 mg/kg ([5]; 4 h, pH 7, read-out: % inhibition of carragenin edema, 100 mg/kg i.p., borate buffer pH 7, 4 h) of 18%. It also gave an inhibition in vivo at 150 mg/kg ([5]; 4 h, pH 7, read-out: % inhibition of carragenin edema, 150 mg/kg i.p., borate buffer pH 7, 4 h) of 2%, an inhibition in vivo at 200 mg/kg ([5]; 4 h, pH 7, read-out: % inhibition of carragenin edema, 200 mg/kg i.p., borate buffer pH 7, 4 h) of 0% and an inhibition in vivo at 75 mg/kg ([5]; 5 h, pH 7, read-out: % inhibition of carragenin edema, 75 mg/kg i.p., borate buffer pH 7, 5 h) of 6%. For the same molecule, the inhibition in vivo at 100 mg/kg ([5]; 5 h, pH 7, read-out: % inhibition of carragenin edema, 100 mg/kg i.p., borate buffer pH 7, 5 h) was 19%, the inhibition in vivo at 150 mg/kg ([5]; 5 h, pH 7, read-out: % inhibition of carragenin edema, 150 mg/kg i.p., borate buffer pH 7, 5 h) was 3% and the inhibition in vivo at 200 mg/kg ([5]; 5 h, pH 7, read-out: % inhibition of carragenin edema, 200 mg/kg i.p., borate buffer pH 7, 5 h) was 2%. The inhibition in vivo at 75 mg/kg ([5]; 6 h, pH 7, read-out: % inhibition of carragenin edema, 75 mg/kg i.p., borate buffer pH 7, 6 h) was 10%, the inhibition in vivo at 100 mg/kg ([5]; 6 h, pH 7, read-out: % inhibition of carragenin edema, 100 mg/kg i.p., borate buffer pH 7, 6 h) was 18% and the inhibition in vivo at 150 mg/kg ([5]; 6 h, pH 7, read-out: % inhibition of carragenin edema, 150 mg/kg i.p., borate buffer pH 7, 6 h) was 8%. It also gave an inhibition in vivo at 200 mg/kg ([5]; 6 h, pH 7, read-out: % inhibition of carragenin edema, 200 mg/kg i.p., borate buffer pH 7, 6 h) of 1%, an inhibition in vivo at 75 mg/kg ([5]; read-out: % inhibition of carragenin edema, 75 mg/kg i.p., borate buffer pH 7, 1/2 h) of 26% and an inhibition in vivo at 100 mg/kg ([5]; read-out: % inhibition of carragenin edema, 100 mg/kg i.p., borate buffer pH 7, 1/2 h) of 45%. The inhibition in vivo at 150 mg/kg ([5]; read-out: % inhibition of carragenin edema, 150 mg/kg i.p., borate buffer pH 7, 1/2 h) was 26%, the inhibition in vivo at 200 mg/kg ([5]; read-out: % inhibition of carragenin edema, 200 mg/kg i.p., borate buffer pH 7, 1/2 h) was 40% and the solubility [6] was 1600 µg/mL (≈ 3.28 mM).
